Test results taken from US10570180B2, “Anti-bacterial agents and their use in therapy” (priority 2015, dated 2020).
Values after ≈ are worked out from the molar mass of the structure shown. Where two headings read alike, the source gives them in different places. Ends that are not written are not given here.

Experiments:
[1] = test system: E. faecium CCUG 37832 (TO-3); assay type: cell-based, Enterococcus faecium; settings: CCUG 37832
Procedure: (§1) ATX-101 was dissolved in Mueller-Hinton broth to 1.25 times of the desired assay concentration. Antibiotics were dissolved in Mueller-Hinton broth and Mueller-Hinton broth with ATX-101 at a concentration of 1.25 times the highest desired assay concentrations. Antibiotics were pharmaceutical grade purchased from Sigma-Aldrich.
(§2) Two-fold serial dilutions of antibiotics were made in Mueller-Hinton with different concentrations of ATX-101, and the solutions were placed in four parallel wells is Nunc 384-well micro plates (30 μl per well in Nunc 242757 microplates). A group of 8 wells with no addition of antibiotics for each ATX-101 concentration was included on each micro plate as a growth reference.
(§3) At the day of analysis, overnight TSB cultures inoculated from freeze stocks (6 ml in 50 ml tube tilted to 45-degrees angle, 200 rpm, 2.5 cm amplitude, 37° C.) were diluted in TSB until the OD800 was 0.10, and further diluted 1:40 in Mueller-Hinton broth. Each well in the 384-well assay plates was inoculated with 7.5 μl of the diluted culture, giving the same dilution of the culture in the assay cultures. The microplates were placed in plastic bags and incubated without shaking at 37° C. The optical density at 600 nm in the microwells was measured after approximately 19 hours of incubation, and the relative growth yield was calculated based on the growth in the reference groups. The MIC value was set to the highest concentration giving less than 30% growth in all 4 parallel wells within the sample groups. The microplates were further incubated for 6 hours, and optical density in the cultures was measured once more for confirmation of the estimated MIC-values.
Accordingly, concentrations of 8 μg/ml and 16 μg/ml of ATX-101 were combined with various antibiotics selected from; 2,4-Diamin, S. methizol, S. methoxa, S. dimetho, Surfaceta, Trimeth, Flumeq, Levoflox, Pruliflox, Metronid and Nitrofur.
(§4) The MICS for various APIM peptides were determined for various bacteria, as described above.

[2] = test system: Staphylococcus aureus NCTC 6571; assay type: cell-based; settings: NCTC 6571
Procedure: as §1, §2, §3, §4

[3] = test system: E. faecium TO-12; assay type: cell-based
Procedure: as §1, §2, §3, §4

[4] = test system: Staphylococcus aureus MRSA 1040s; assay: microbe, parasite or virus in culture; assay type: cell-based; settings: for MIC of Erythromycin (Relative values): concentration of APIM peptide 15 μg/ml
Procedure: as §1, §2, §3
as §1, with “The APIM peptide was” for “ATX-101 was”, “with APIM” for “with ATX-101”
as §2, with “APIM,” for “ATX-101,”, “in” for “is”, “APIM” for “ATX-101”, “as” for “as a”
as §3, with “inoculated” for “inoculated from”, “OD600” for “OD800”, “culture.” for “culture, giving the same dilution of the culture in the assay cultures.”, “yield in each well” for “yield”
In view of the anti-bacterial effect of ATX-101 on strains of MRSA, the MIC for a variety of APIM variants was determined using Staphylococcus aureus MRSA 1040s. […] A cell penetrating peptide (SEQ ID NO: 337) present in all of the APIM peptides, was used as a negative control.
Next, the effect of APIM peptides on the MIC of antibiotics was determined using Staphylococcus aureus MRSA 1040s.
as §4

[5] = test system: E. faecium CTC 492; assay: MIC assay of antibiotics with ATX-101; assay type: cell-based, Enterococcus faecium; settings: Enterococcus faecium, CTC492, E. faecium CTC 492, read-out: Est MIC
Procedure: (§5) The minimum inhibitory concentration (MIC) of ATX-101 (SEQ ID NO: 1289) was determined for various gram negative and gram positive bacteria. The bacteria, Pseudomonas aeruginosa ATCC 15692, Acinetobacter baumenni ATCC 19600, Escherichia coli ATCC 25922, Pseudomonas aeruginosa TO-5A (clinical isolate), Enterococous faecium CCUG 37832, Enterococcus faecium CTC 492, Micrococcus luteus ATCC 9341 and Escherichie coli NCIMB 12210 were grown in the presence of various concentrations of ATX-101 and/or antibiotic.
as §1, §2, §3
as §1, with “The APIM peptide was” for “ATX-101 was”, “with APIM” for “with ATX-101”
as §2, with “APIM,” for “ATX-101,”, “in” for “is”, “APIM” for “ATX-101”, “as” for “as a”
as §3, with “inoculated” for “inoculated from”, “OD600” for “OD800”, “culture.” for “culture, giving the same dilution of the culture in the assay cultures.”, “yield in each well” for “yield”

[6] = test system: E. coli NCIMB 12210; assay: MIC assay of antibiotics with ATX-101; assay type: cell-based, Escherichia coli; settings: Escherichia coli, NCIMB12210, E. coli NCIMB 12210, read-out: Est MIC
Procedure: as §5, §1, §2, §3
as §1, with “The APIM peptide was” for “ATX-101 was”, “with APIM” for “with ATX-101”
as §2, with “APIM,” for “ATX-101,”, “in” for “is”, “APIM” for “ATX-101”, “as” for “as a”
as §3, with “inoculated” for “inoculated from”, “OD600” for “OD800”, “culture.” for “culture, giving the same dilution of the culture in the assay cultures.”, “yield in each well” for “yield”

[7] = test system: A. baumanii ATCC 19606; assay: MIC assay of antibiotics with ATX-101; assay type: cell-based; settings: Acinetobacter baumannii
Procedure: as §1, with “The APIM peptide was” for “ATX-101 was”, “with APIM” for “with ATX-101”
as §2, with “APIM,” for “ATX-101,”, “in” for “is”, “APIM” for “ATX-101”, “as” for “as a”
as §3, with “inoculated” for “inoculated from”, “OD600” for “OD800”, “culture.” for “culture, giving the same dilution of the culture in the assay cultures.”, “yield in each well” for “yield”

[8] = ATCC19606, A. baumanii ATCC 19606, APIM (ATX-101) conc. 2 μg/ml, read-out: Est MIC
[9] = ATCC19606, A. baumanii ATCC 19606, APIM (ATX-101) conc. 4 μg/ml, read-out: Est MIC
[10] = ATCC19606, A. baumanii ATCC 19606, APIM conc. 0 μg/ml, read-out: Est MIC

MDRWLSKWKKKRKIRRRRRRRRRRR [SEQ ID NO: 1302]
MIC [1]: 7.5 µM | MIC [2]: 37.9 µM | MIC [3]: 16.8 µM | MIC of Erythromycin (Relative values) ([4]; MRSA 1040s): 200

CC[C@H]1OC(=O)[C@H](C)[C@@H](O[C@H]2C[C@@](C)(OC)[C@@H](O)[C@H](C)O2)[C@H](C)[C@@H](O[C@@H]2O[C@H](C)C[C@H](N(C)C)[C@H]2O)[C@](C)(O)C[C@@H](C)CN(C)[C@H](C)[C@@H](O)[C@]1(C)O [Azithromycin, reference compound]
MIC ([4]; Staphylococcus aureus, Table 6, alone, MRSA 1040s, read-out: MIC): > 1030 µg/mL | MIC when combined with 10 μg/ml of ATX-101 ([4]; Table 6, MRSA 1040s): 8 µg/mL

O=C(N[C@H](CO)[C@H](O)c1ccc([N+](=O)[O-])cc1)C(Cl)Cl [Chloramphenicol]
MIC ([5]; APIM (ATX-101) conc. 6.5 μg/ml): 2 µg/mL (≈ 6.19 µM) | MIC ([5]; APIM (ATX-101) conc. 13 μg/ml): 1 µg/mL (≈ 3.09 µM) | MIC ([5]; APIM conc. 0 μg/ml): 2 µg/mL (≈ 6.19 µM) | MIC ([6]; APIM (ATX-101) conc. 2 μg/ml): 2 µg/mL (≈ 6.19 µM) | MIC ([6]; APIM (ATX-101) conc. 4 μg/ml): 2 µg/mL (≈ 6.19 µM) | MIC ([6]; APIM (ATX-101) conc. 8 μg/ml): 1 µg/mL (≈ 3.09 µM) | MIC ([6]; APIM conc. 0 μg/ml): 2 µg/mL (≈ 6.19 µM)

MDRFLSKWKKKRKIRRRRRRRRRRR [SEQ ID NO: 1301]
MIC [1]: 7.5 µM | MIC [2]: 37.9 µM | MIC [3]: 25.3 µM | MIC ([4]; 1040s): 7.5 µM

C[C@@H](O)[C@H]1C(=O)N2C(C(=O)O)=C(SCCN=CN)C[C@H]12 [Imipenem]
MIC ([5]; APIM (ATX-101) conc. 6.5 μg/ml): 2 µg/mL (≈ 6.68 µM) | MIC ([5]; APIM (ATX-101) conc. 13 μg/ml): 2 µg/mL (≈ 6.68 µM) | MIC ([5]; APIM conc. 0 μg/ml): 4 µg/mL (≈ 13.4 µM) | MIC [7, 8]: 0.125 µg/mL (≈ 0.418 µM) | MIC [7, 9]: 0.125 µg/mL (≈ 0.418 µM) | MIC [7, 10]: 0.25 µg/mL (≈ 0.835 µM)

CN[C@H](CC(C)C)C(=O)N[C@H]1C(=O)N[C@@H](CC(N)=O)C(=O)N[C@H]2C(=O)N[C@H]3C(=O)N[C@H](C(=O)N[C@H](C(=O)O)c4cc(O)cc(O)c4-c4cc3ccc4O)[C@H](O)c3ccc(c(Cl)c3)Oc3cc2cc(c3O[C@@H]2O[C@H](CO)[C@@H](O)[C@H](O)[C@H]2O[C@H]2C[C@](C)(N)[C@H](O)[C@H](C)O2)Oc2ccc(cc2Cl)[C@H]1O [Vancomycin]
MIC ([7]; ATCC19606, read-out: Est MIC, A. baumanii ATCC 19606, APIM (ATX-101) conc. 2 μg/ml): 32 µg/mL (≈ 22.1 µM) | MIC ([7]; ATCC19606, read-out: Est MIC, A. baumanii ATCC 19606, APIM (ATX-101) conc. 4 μg/ml): 16 µg/mL (≈ 11 µM) | MIC ([7]; ATCC19606, read-out: Est MIC, A. baumanii ATCC 19606, APIM conc. 0 μg/ml): 32 µg/mL (≈ 22.1 µM)

CO[C@@H]1[C@@H](OC(N)=O)[C@@H](O)[C@H](Oc2ccc3c(O)c(NC(=O)c4ccc(O)c(CC=C(C)C)c4)c(=O)oc3c2C)OC1(C)C [Novobiocin]
MIC [7, 8]: 8 µg/mL (≈ 13.1 µM) | MIC [7, 9]: 8 µg/mL (≈ 13.1 µM) | MIC ([7]; ATCC19606, A. baumanii ATCC 19606, APIM (ATX-101) conc. 8 μg/ml, read-out: Est MIC): 2 µg/mL (≈ 3.26 µM) | MIC [7, 10]: 8 µg/mL (≈ 13.1 µM) | MIC ([6]; APIM (ATX-101) conc. 2 μg/ml): 32 µg/mL (≈ 52.2 µM) | MIC ([6]; APIM (ATX-101) conc. 4 μg/ml): 8 µg/mL (≈ 13.1 µM) | MIC ([6]; APIM (ATX-101) conc. 8 μg/ml): 4 µg/mL (≈ 6.53 µM) | MIC ([6]; APIM conc. 0 μg/ml): 64 µg/mL (≈ 104 µM)

MDRWLTKWKKKRKIRRRRRRRRRRR [SEQ ID NO: 1300]
MIC [1]: 7.5 µM | MIC [2]: 37.9 µM | MIC [3]: 25.3 µM | MIC of Erythromycin (Relative values) ([4]; MRSA 1040s): 100
